Results on 3 compounds are retold here after US20240199997A1, “COMPOSITIONS COMPRISING A META-(C1-C4 ALKOXY) […]” (The Procter & Gamble Company, priority 2022, published 2024).

Read-outs that look alike come from different tables or passages of the source.

Series [1] can be described thus: Headspace Method (dynamic headspace GC/MS), solution in isopropyl myristate (IPM). Conditions: for Air/IPM partition coef (ng/mL in air per ng/mL in IPM) / Headspace: 30° C.; for Headspace: above IPM solution of about 2.1E+06 ng/mL. It counts as physicochemical. The protocol:
(§1) Perfume headspace data is collected for various materials according to the method provided below.
(§2) The partition coefficients are calculated by determining the amount of PRM in the headspace above a solution with a known concentration using a GC/FID-MS (Agilent 7890 and 5977A MSD) with a thermal desorption unit (Gerstel MPS2) and Dynamic Headspace Sampler (Gerstel DHS). This technique allows for automated headspace collections using the MultiPurposeSampler (MPS). The PRMs of interest are prepared at a known concentration in isopropyl myristate (IPM) or propylene glycol monomethyl ether (DPM), and 1 mL is pipetted in a 20 mL headspace vial.
(§3) DHS Conditions: The sample is tempered in the unit at 30° C. A helium stream at 10 mls/min purges 20 mL of headspace containing the analytes above the sample onto the sorbent tube (TDU) containing 25 mg of TenaxTA 35/60 (Restek cat #25701).
(§4) TDU conditions: The sorbent tube is desorbed with a program starting at 30° C. solvent vent for 2 min then ramped at 720° C./min to 270° C. and held for 8 min. The analytes are refocused on a glass bead liner at −60° C. then desorbed at a rate of 12° C./s to 270° C. onto the GC column.
(§5) GC/MS conditions: Agilent 122-5532UI column of 30 m×250 μm×0.25 μm and a flow rate of 1.5mL/min is utilized. A temperature program of 50° C. to 280° C. with a 2 min hold and a ramp rate of 12° C./min is suitable. Scan or SIM mode MSD parameters with a solvent delay for the DPM are applied to achieve appropriate detection.
(§6) Analytical standards can be obtained from Sigma Aldrich, St. Louis, MO and BioSynth, UK. A stock solution is prepared at approximately 0.5 g/L. The stock solution is then diluted to 4 to 5 concentrations ranging from approximately 0.05 g/L to 0.00005 g/L. These standard solutions are then analyzed by GC/MS. This analysis is performed by using the same TDU desorption and GC/MS conditions described above with a 1 uL liquid injection onto the TDU tube instead of the DHS collection. The amount injected on column and the area responses of the target m/z are utilized to create a calibration plot with a linear fit.
(§7) Quantification of the headspace is performed by the PRM target m/z area response of the perfume component and the linear equation of the calibration plot.
(§8) Perfume headspace data is collected for various materials according to the Headspace Method provided above in the Test Methods section. The Air/Solvent partition coefficients are determined and indexed accordingly (e.g., where the partition coefficient for ethylvanillin is set at 1.00).

Series [2] is described as follows: Headspace Method (dynamic headspace GC/MS), solution in propylene glycol monomethyl ether (DPM). It counts as physicochemical. The following applies: for Air/DPM partition coef (ng/mL in air per ng/mL in DPM) / Headspace: 30° C.; for Headspace: above DPM solution of 1.1E+07 ng/mL. The protocol: as §1, §2, §3, §4, §5, §6, §7, §8

On to `CCOc1cc(C=O)ccc1O` [Ethylvanillin], for which, in series [1] (average of two replicates), the “Air/IPM partition coef (ng/mL in air per ng/mL in IPM)” value was 1.95E−08 ng/mL in air per ng/mL in IPM and the “Headspace” value came to 0.0402 ng/mL. In addition, in series [1] (partition coefficient for ethylvanillin set at 1.00, average of two replicates), the “Ethylvanillin Indexed Air/IPM partition coefficient” value worked out at 1.00. In series [2] (average of three replicates), the “Air/DPM partition coef (ng/mL in air per ng/mL in DPM)” value was 2.45E−09 ng/mL in air per ng/mL in DPM and the “Headspace” value came to 0.0262 ng/mL. In addition, the “Ethylvanillin Indexed Air/DPM partition coefficient” value in series [2] (partition coefficient for ethylvanillin set at 1.00, average of three replicates) is 1.00.
Regarding `COc1cc(C=O)ccc1O` [Vanillin], the “Ethylvanillin Indexed Air/IPM partition coefficient” value in series [1] came to 1.40. In series [1] (average of two replicates), the “Air/IPM partition coef (ng/mL in air per ng/mL in IPM)” value is on record as 2.73E−08 ng/mL in air per ng/mL in IPM and the “Headspace” value came out at 0.0563 ng/mL. In addition, in series [2] (average of three replicates), the “Air/DPM partition coef (ng/mL in air per ng/mL in DPM)” value was 1.21E−08 ng/mL in air per ng/mL in DPM and the “Headspace” value is given as 0.1288 ng/mL.
In the case of `CCOc1cccc(C=O)c1O` [ortho-Ethylvanillin, 2-hydroxy-3-ethoxybenzaldehyde], in series [1] (average of two replicates), the “Air/IPM partition coef (ng/mL in air per ng/mL in IPM)” value was 1.21E−07 ng/mL in air per ng/mL in IPM and the “Headspace” value was determined as 0.2521 ng/mL. Also, the “goes into the headspace more than its structural isomer ethylvanillin” value in series [1] (out of IPM) is reported as “about 6.2 ×”. In series [2] (average of three replicates), the “Air/DPM partition coef (ng/mL in air per ng/mL in DPM)” value is listed as 2.31E−07 ng/mL in air per ng/mL in DPM and the “Headspace” value amounted to 2.4678 ng/mL. Also, the “goes into the headspace more than ethylvanillin” value in series [2] (out of DPM) was “about 94 ×”.
